Among the data in ChEMBL document CHEMBL1132216, “Studies on the monoamine oxidase-B-catalyzed biotransformation of 4-azaaryl-1-methyl-1,2,3,6-tetrahydropyridine derivatives” (J Med Chem, 1999) are Ratio values, retold here.

The assay can be described thus: Ratio of Kcat versus Km was determined.

Turning to `CN1CC=C(c2cccn2C)CC1`, the Ratio stood at 1800.

`CN1CC=C(c2ccc[nH]2)CC1`: the Ratio came to 46.
